Measurements taken from patent US20240091372A1, “ANTI-DOPPEL ANTIBODY DRUG CONJUGATES” (SEOUL NATIONAL UNIVERSITY R&DB FOUNDATION, priority 2022, published 2024).
No end group written: not given here. *: point of attachment. MMAE = monomethyl auristatin E, CC[C@H](C)[C@@H]([C@@H](CC(=O)N1CCC[C@H]1[C@H](OC)[C@@H](C)C(=O)N[C@H](C)[C@@H](O)c1ccccc1)OC)N(C)C(=O)[C@@H](NC(=O)[C@H](C(C)C)N(C)*)C(C)C; p‑aminobenzylcarbamate = NC(=O)OCc1ccc(N*)cc1

Legend:
[1] = tested on: HCT116 xenograft tumor; assay: In vivo efficacy in HCT116 xenograft tumor model; set-up: species or system balb-c/nu mice; details: for tumor growth suppression (KGDEVD-MMAE ADCs): same tumor model, FIG. 7
Procedure: To assess the anti-tumor efficacy of anti-doppel ADCs, an HCT116 xenograft tumor model was used. HCT116 cells (1×10^^7 cells/mouse) were inoculated into the left flank of balb-c/nu mice. When the average tumor volume reach 70-100 mm^3, ADC was administered intravenously every 4 days for a total of 4 times. Tumor volume was measured every 4 days until the end of the experiments.

[2] = target: doppel (human, UniProt Q9UKY0 26-152); assay: cell-based or functional assay
Sequence of doppel (Q9UKY0 26-152): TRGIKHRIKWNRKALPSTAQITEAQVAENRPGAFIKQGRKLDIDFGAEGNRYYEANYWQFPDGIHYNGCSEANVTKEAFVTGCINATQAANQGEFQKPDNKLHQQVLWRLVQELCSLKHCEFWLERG

3H9-DEVD-MMAE: ADC prepared as 3H9-KGDEVD-MMAE except using maleimide-DEVD-MMAE (DEVD-{p‑aminobenzylcarbamate-MMAE}; not fully specified (N-terminus); also: conjugated to mAb 3H9 through maleimide)
tumor growth suppression, ADCs with different linkers ([1]; HCT116 xenograft, FIG. 6): effectively suppressed tumor growth

3D5-KGDEVD-MMAE: ADC prepared as 3H9-KGDEVD-MMAE using anti-doppel mAb 3D5 (maleimide-KGDEVD-{p‑aminobenzylcarbamate-MMAE}; also: conjugated to mAb 3D5 through maleimide)
tumor growth suppression (KGDEVD-MMAE ADCs) [1]: effectively suppressed tumor growth

4D1-KGDEVD-MMAE: ADC prepared as 3H9-KGDEVD-MMAE using anti-doppel mAb 4D1 (maleimide-KGDEVD-{p‑aminobenzylcarbamate-MMAE}; also: conjugated to mAb 4D1 through maleimide)
tumor growth suppression (KGDEVD-MMAE ADCs) [1]: effectively suppressed tumor growth

B1: 3H9-KGDEVD-MMAE (name=SEQ ID NO:65; structure=SEQ ID NO:66) (antibody, human IgG1, kappa, V domains shown)
VH: EVQLVESGGGLVQPGGSLRLSCAASGFTFSSYAMSWVRQAPGKGLEWVSGISGSGSRTDYADSVKGRFTISRDNSKNTLYLQMNSLRAEDTAVYYCAKVYTYTRGFAFDLWGQGTLVTVSS
VL: DIQMTQSPSSLSASVGDRVTITCRASQSISNYLNWYQQKPGKAPKLLIYAASTLQSGVPSRFSGSGSGTDFTLTISSLQPEDFATYYCQQSYSFPYTFGQGTKVEIKR
modifications: maleimide-KGDEVD-MMAE (SEQ ID NO:77) linker-payload on reduced Cys residues of the partially reduced mAb; positions and chain not stated
IC50 (nM), cytotoxicity on HCT116 cells, viability after 72 hours [2]: 39.3 nM

B2: 3H9-vc-MMAE (antibody, human IgG1, kappa, V domains shown)
VH: EVQLVESGGGLVQPGGSLRLSCAASGFTFSSYAMSWVRQAPGKGLEWVSGISGSGSRTDYADSVKGRFTISRDNSKNTLYLQMNSLRAEDTAVYYCAKVYTYTRGFAFDLWGQGTLVTVSS
VL: DIQMTQSPSSLSASVGDRVTITCRASQSISNYLNWYQQKPGKAPKLLIYAASTLQSGVPSRFSGSGSGTDFTLTISSLQPEDFATYYCQQSYSFPYTFGQGTKVEIKR
modifications: mc-Val-Cit-PABA-MMAE linker-payload on reduced Cys residues of the partially reduced mAb; positions and chain not stated
IC50 (nM), cytotoxicity on HCT116 cells, viability after 72 hours [2]: 28.6 nM
